Ends that are not written are not given here.
Legend:
human PD-1 [1] = target: T1, human PD-1 (Homo sapiens, UniProt Q15116); test: BIACORE binding of peptide LD01 to human PD-1; settings: immobilized peptide; single analyte concentration 290 nM; 25° C.
Description: (§1) BIACORE® assays were carried out using a BIACORE® T-200 at 25° C. The assay and regeneration buffers contained 10 mM HEPES (pH 7.4), 150 mM NaCl, 3 mM EDTA, and 0.05% P20. The immobilization buffer was 10 mM sodium acetate, pH 5.0. The flow rate used for immobilizing the ligand was 5 μl/min. The flow rate for kinetics analysis was 30 μl/min.
(§2) Scouting. […] The un-occupied sites were blocked with 1M ethanol amine. Scouting was performed at a single analyte concentration of 290 nM to confirm yes/no binding. Flow cell 1 was kept blank and used for reference subtraction. Binding of analyte to the ligand was monitored in real time.
(§3) Full Kinetics. Based on the scouting results, full kinetics was performed at analyte concentration of 100 nM, followed by serial dilution to 50, 25, 12.5, 6.25, 3.125, 1.562 and 0 nM concentration or as indicated. KD was determined from the observed kon (on rate) and koff (off rate) or by steady state equilibrium kinetics for the interactions with fast off rate.
(§4) Chi square (χ^2) analysis was carried out between the actual Sensorgram and the sensorgram generated from the BIAnalysis software to determine the accuracy of the analysis. χ^2 value within 1-2 is considered significant (accurate) and below 1 is highly significant (highly accurate).
Target sequence in this assay (Q15116 25-288): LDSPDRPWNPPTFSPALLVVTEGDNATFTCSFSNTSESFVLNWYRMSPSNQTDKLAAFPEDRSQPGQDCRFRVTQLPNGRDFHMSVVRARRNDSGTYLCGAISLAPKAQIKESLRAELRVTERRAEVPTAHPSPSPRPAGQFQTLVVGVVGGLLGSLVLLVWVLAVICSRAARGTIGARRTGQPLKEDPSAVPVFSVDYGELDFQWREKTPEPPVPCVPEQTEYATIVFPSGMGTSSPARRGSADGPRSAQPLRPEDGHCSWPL

mouse PD-1 = target: T2, mouse PD-1 (Mus musculus, UniProt Q02242); test: BIACORE binding of peptide LD01 to mouse PD-1; settings: immobilized peptide; 25° C.
T2 sequence (Q02242 25-288): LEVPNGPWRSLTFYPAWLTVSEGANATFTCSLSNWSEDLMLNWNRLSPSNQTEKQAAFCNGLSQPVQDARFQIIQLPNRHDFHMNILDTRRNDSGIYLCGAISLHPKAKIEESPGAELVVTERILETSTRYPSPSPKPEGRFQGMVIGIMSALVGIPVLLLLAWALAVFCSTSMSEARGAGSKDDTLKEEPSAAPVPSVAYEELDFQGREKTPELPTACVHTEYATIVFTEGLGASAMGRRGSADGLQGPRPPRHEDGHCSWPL
Description: as §1, §2, §3, §4

[2] = target: T3, human PD-1 expressed on the surface of Jurkat cells (Homo sapiens, UniProt Q15116); test: Binding of PD-L1-Fc fusion protein to human PD-1 on Jurkat cells (flow cytometry); assay type: cell-based; settings: varying peptide concentrations, 1 hour pre-incubation; increasing dose-response trend
T3 construct: host or cells: Jurkat
T3 sequence (Q15116 25-288): as the sequence (Q15116 25-288) above
Description: A human T cell line (Jurkat) stably expressing human PD-1 on its surface was purchased from Promega. This cell line was cultured using sterile techniques and maintained in log-phase growth. PD-1 protein expression levels were measured using an anti-human PD-1 antibody labeled with allophycocyanin (APC) for quality assessment.
For the experiment, 200 μL of 2.5*10^5 cells were plated in staining buffer into a microtiter plate. […] After another wash step, the cells were incubated with anti-human Fc labeled with AF647 for 30 minutes. After several washes, the mean fluorescence intensity due to PD-L1-Fc binding to PD-1 was measured by flow cytometry.

human PD-1 [3] = target: T1, human PD-1; test: Binding of PD-L1-Fc to PD-1 in a cell-free plate assay; settings: plates coated with peptide; 1 μg/mL PD-1
Description: The plates were washed and blocked with 1% BSA for 1 hour at room temperature. The plates were then incubated with 100 μL of 1 μg/mL PD-1 at room temperature for 1 hour. The plates were again washed and incubated with PD-L1 at room temperature for 1 hour. After another round of washes, the plates were incubated with anti-human IgG-HRP. After incubation for 1 hour and washes, the HRP was detected by incubating with TMB substrate, and the OD were read on a microplate reader.
Target sequence in this assay (Q15116 25-167 limits assumed): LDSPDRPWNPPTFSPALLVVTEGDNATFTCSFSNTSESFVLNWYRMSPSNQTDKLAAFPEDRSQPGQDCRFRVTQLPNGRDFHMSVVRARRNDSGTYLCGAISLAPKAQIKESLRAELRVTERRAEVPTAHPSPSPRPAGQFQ
Target sequence in this assay (Q9NZQ7 19-238 partner limits assumed): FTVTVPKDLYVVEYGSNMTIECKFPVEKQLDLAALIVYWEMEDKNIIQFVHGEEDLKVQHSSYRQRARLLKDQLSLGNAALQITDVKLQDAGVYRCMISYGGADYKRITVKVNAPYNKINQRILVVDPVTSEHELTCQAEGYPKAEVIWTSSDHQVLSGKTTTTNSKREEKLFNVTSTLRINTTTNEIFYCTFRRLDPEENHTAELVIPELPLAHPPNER

mouse splenocytes = test: Anti-CD3-stimulated mouse splenocyte proliferation (CFSE); assay type: cell-based; settings: 1, 5, 25 μM peptide; 1 μg/mL anti-CD3; presence and absence of exogenously added PD-L1-Fc; 3 days
Description: PD-L1-Fc fusion protein is hypothesized to reduce anti-CD3 induced splenocyte proliferation.
Carboxyfluorescein diacetate succinimidyl ester (CFSE)-labeled mouse splenocytes (400,000 cells, 5 μM CFSE) were stimulated using 1 μg/mL anti-CD3 antibody and varying levels of PD-L1-Fc or an irrelevant control Fc. […] The CFSE dilution profiles were analyzed by flow cytometry after 3 days of treatment.

B16-F-10 mouse melanoma = test: B16-F10 mouse melanoma lung metastasis model; assay type: in vivo, C57/BL6 mice; settings: for number of tumor nodules, difference versus no treatment saline (one-way ANOVA, p<0.05) / reduction of lung metastasis (tumor nodules) relative to no treatment saline: Table 1B study, i.v., days 1, 2, 4, 6, 8, 12
[4] = system: CSP-specific, IFNγ-secreting CD8+ T cells; test: Immunogenicity of AdPyCSP malaria vaccine (ELISPOT); assay type: in vivo, Balb/c mice; settings: for increase in number of CSP-specific, IFNγ-secreting CD8 T cells relative to AdPyCSP alone: 200 μg i.p. days 0, 1, 3, 5, 7, day 12
Description: Balb/c mice were immunized intramuscularly with 10^10 virus particles of a recombinant replication defective adenovirus expressing the Plasmodium yoelli circumsporozoite protein (AdPyCSP).
The negative control peptide used in this study was the ovalbumin (OVA) peptide ([…], SEQ ID NO:34). At day 12 post immunization, mice were euthanized, individual spleens removed, and the number of splenic CSP-specific, IFNγ-secreting CD8^+ T cells were determined by ELISPOT assay. For the ELISPOT assay splenocytes were stimulated with the peptide […] (SEQ ID NO:35), an H-2Kd-restricted CD8^+ T cell epitope of PyCSP.
Peptides LD01, LD10da, and LD16da were tested as described above, this time using peptide LD12 (cohort 2) as the negative control. Test sample, route of treatment and treatment days are detailed in Table 2B.
At day 12 post immunization, mice were euthanized, individual spleens removed, and the number of splenic CSP-specific, IFNγ-secreting CD8^+ T cells were determined by ELISPOT assay. For the ELISPOT assay splenocytes were stimulated with the peptide […] (SEQ ID NO:35), an H-2Kd-restricted CD8^+ T cell epitope of PyCSP.

[5] = system: CD1 mice with intra-abdominal peritonitis induced by cecal ligation and puncture (CLP); test: Mouse sepsis model (CLP), survival; assay type: in vivo; settings: 200 μg intraperitoneally at 6, 24, and 48 hours after CLP surgery
From the text: CD1 mice were anesthetized, a midline abdominal incision made, the cecum was ligated and punctured, and then the incision closed.

IFNγ-secreting T cells = test: Mouse sepsis model (CLP), splenic IFNγ-secreting T cells by ELISPOT; assay type: in vivo, mice; settings: treated at 6, 24, 48, 72 and 96 hours after CLP, anti-CD3 and anti-CD28 stimulation
Description: Twenty-four hours later, mice were euthanized, individual spleens were removed, and the number of splenic IFNγ-secreting T cells were determined by ELISPOT assay. For the ELISPOT assay splenocytes were stimulated via anti-CD3 and anti-CD28. Shown in FIG. 14 is the number of IFNγ-secreting T cells per 2×10^5 splenocytes.

human PBMCs = assay type: cell-based; settings: 72 hours

CC[C@H](C)[C@H](NC(=O)[C@H](CCC(N)=O)NC(=O)CNC(=O)[C@@H](NC(=O)[C@H](CO)NC(=O)[C@@H](NC(=O)[C@H](CCCNC(=N)N)NC(=O)[C@H](CCCNC(=N)N)NC(=O)[C@@H](N)CS)[C@@H](C)O)[C@@H](C)O)C(=O)N[C@@H](CO)C(=O)N[C@H](C(=O)N[C@@H](CC(C)C)C(=O)N[C@@H](CCCNC(=N)N)C(=O)N[C@H](C(=O)N[C@@H](CC(N)=O)C(=O)N[C@H](C(=O)N[C@H](C(=O)N[C@@H](C)C(=O)N1CCC[C@H]1C(=O)N[C@@H](CC(C)C)C(=O)N[C@@H](CO)C(=O)N[C@@H](CCC(N)=O)C(N)=O)[C@@H](C)O)[C@@H](C)CC)C(C)C)[C@@H](C)O [LD01]
binding to human PD-1 (BIACORE, yes/no) (human PD-1 [1]): binds | binding to mouse PD-1 (BIACORE, single concentration and kinetics) (mouse PD-1): binds | effect on binding of human PD-L1-Fc fusion protein to human PD-1-expressing Jurkat cells [2]: enhances binding | effect on binding of human PD-L1-Fc fusion protein to human PD-1 in a cell-free assay (human PD-1 [3]): enhances binding | effect on proliferation of anti-CD3 stimulated mouse splenocytes (mouse splenocytes): enhances proliferation | reduction of lung metastasis (tumor nodules) relative to no treatment (B16-F-10 mouse melanoma; Table 1A study, Cohorts 3 and 4 (20 μg and 200 μg i.v., days 1, 2, 4, 6, 8, 12), day 14): ~50% | number of tumor nodules, difference versus no treatment saline (one-way ANOVA, p<0.05) (B16-F-10 mouse melanoma): Significant differences | reduction of lung metastasis (tumor nodules) relative to no treatment saline (B16-F-10 mouse melanoma): ~30% | immunogenicity compared with anti-PD-1 or -PD-L1 antibody (Cohort 4 and 5) ([4]; Table 2A study, 200 μg i.p.): slightly above | increase in number of CSP-specific, IFNγ-secreting CD8 T cells relative to AdPyCSP alone ([4]; Table 2A study): ~2 fold | increase in number of CSP-specific, IFNγ-secreting CD8 T cells relative to AdPyCSP alone ([4]; Table 2B study): ~1.5 fold | survival rate [5]: 70% | number of splenic IFNγ-secreting T cells relative to the control peptide (IFNγ-secreting T cells): increase | increase in IFN-γ secretion relative to SEB alone (human PBMCs): 4 fold

CC[C@H](C)[C@H](NC(=O)[C@H](CCC(N)=O)NC(=O)CNC(=O)[C@@H](NC(=O)[C@H](N)CO)[C@@H](C)O)C(=O)N[C@@H](CO)C(=O)N[C@H](C(=O)N[C@@H](CC(C)C)C(=O)N[C@@H](CCCNC(=N)N)C(=O)N[C@H](C(=O)N[C@@H](CC(N)=O)C(=O)N[C@H](C(=O)N[C@H](C(=O)N[C@@H](C)C(=O)N1CCC[C@H]1C(=O)N[C@@H](CC(C)C)C(=O)N[C@@H](CO)C(=O)N[C@@H](CCC(N)=O)C(N)=O)[C@@H](C)O)[C@@H](C)CC)C(C)C)[C@@H](C)O [LD10da]
immunogenicity compared with α-PD-1 mAb (Cohort 6) ([4]; Table 2B study, 200 μg i.p.): slightly above

RRTSPGQISTLRVNITAPLSQ [LD02]
survival rate [5]: 30%

CC[C@H](C)[C@H](NC(=O)[C@H](CCC(N)=O)NC(=O)CNC(=O)[C@@H](NC(=O)[C@H](CO)NC(=O)[C@H](N)[C@H](C)O)[C@@H](C)O)C(=O)N[C@@H](CO)C(=O)N[C@H](C(=O)N[C@@H](CC(C)C)C(=O)N[C@@H](CCCNC(=N)N)C(=O)N[C@H](C(=O)N[C@@H](CC(N)=O)C(=O)N[C@H](C(=O)N[C@H](C(=O)N[C@@H](C)C(=O)N1CCC[C@H]1C(=O)N[C@@H](CC(C)C)C(=O)N[C@@H](CO)C(=O)N[C@@H](CCC(N)=O)C(N)=O)[C@@H](C)O)[C@@H](C)CC)C(C)C)[C@@H](C)O [LD01 TQ19 da/LD16 da]
number of tumor nodules, difference versus no treatment saline (one-way ANOVA, p<0.05) (B16-F-10 mouse melanoma): Significant differences | reduction of lung metastasis (tumor nodules) relative to no treatment saline (B16-F-10 mouse melanoma): ~30%
